The values below come from PMC9618959, “Cisapride induced hypoglycemia via the KCNH6 potassium channel” (Frontiers in Endocrinology, 2022).

Test [1] concerns the target T1, KCNH6 (Homo sapiens, UniProt Q9H252).
T1 construct: human KCNH6 gene in pcDNA3.1, transiently expressed in HEK293 cells
T1 sequence (Q9H252 1-958): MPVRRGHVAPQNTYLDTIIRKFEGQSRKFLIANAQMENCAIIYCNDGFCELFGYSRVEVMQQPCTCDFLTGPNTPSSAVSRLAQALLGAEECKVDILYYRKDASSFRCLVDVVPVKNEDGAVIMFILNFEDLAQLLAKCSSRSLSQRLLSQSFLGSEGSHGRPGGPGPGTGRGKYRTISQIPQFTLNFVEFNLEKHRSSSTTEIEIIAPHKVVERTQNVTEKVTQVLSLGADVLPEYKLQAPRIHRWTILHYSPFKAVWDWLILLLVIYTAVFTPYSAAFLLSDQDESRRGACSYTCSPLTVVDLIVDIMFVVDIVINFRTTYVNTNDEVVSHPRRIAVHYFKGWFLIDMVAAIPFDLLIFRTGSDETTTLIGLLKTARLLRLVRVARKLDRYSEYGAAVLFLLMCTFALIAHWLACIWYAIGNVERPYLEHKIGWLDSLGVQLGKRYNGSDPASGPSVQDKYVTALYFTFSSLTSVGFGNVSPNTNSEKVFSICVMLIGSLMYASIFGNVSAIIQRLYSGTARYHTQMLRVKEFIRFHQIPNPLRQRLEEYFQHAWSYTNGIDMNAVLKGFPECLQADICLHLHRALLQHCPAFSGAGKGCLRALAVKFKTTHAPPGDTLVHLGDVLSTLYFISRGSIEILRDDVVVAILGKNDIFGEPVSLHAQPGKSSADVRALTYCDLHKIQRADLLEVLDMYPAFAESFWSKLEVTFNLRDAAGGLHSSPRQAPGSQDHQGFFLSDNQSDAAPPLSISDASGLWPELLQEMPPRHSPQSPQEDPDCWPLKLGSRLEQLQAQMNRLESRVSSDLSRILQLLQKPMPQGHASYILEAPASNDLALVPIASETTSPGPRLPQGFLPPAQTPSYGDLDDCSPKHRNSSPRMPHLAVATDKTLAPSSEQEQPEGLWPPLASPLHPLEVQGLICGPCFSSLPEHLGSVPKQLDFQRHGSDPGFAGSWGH
In words: whole-cell patch-clamp, peak tail current in transfected HEK293 cells. The format is cell-based. In general terms: The patch-clamp technique gives a direct electrical read-out from membranes.

Test [2] addresses T1, KCNH6. Description: whole-cell patch-clamp in transfected HEK293 cells (inhibitor control). Format: cell-based.

Each structure is given as a SMILES string.

Take `COc1cc(N)c(Cl)cc1C(=O)NC1CCN(CCCOc2ccc(F)cc2)CC1OC` (centres unmarked) [cisapride]: the concentration for half-maximal inhibition (IC50) (as a rule, the point on the concentration scale where inhibition reaches its midpoint) in test [1] is 6.04 nM. Regarding `CN(CCOc1ccc(NS(C)(=O)=O)cc1)CCc1ccc(NS(C)(=O)=O)cc1` [dofetilide], the “whole-cell patch-clamp in transfected HEK293 cells (inhibitor control)” value in test [2] is “E4031 and dofetilide were used as inhibitor controls”.
